Each structure is given as a SMILES string.

This is an account of results in the supplement of paper PMC3493320.

In the test the test system is NCI-H295R. Description: IC50 (antiproliferative, ATP content). The settings on record: 48 h. In short, it runs like this: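 Adrenocortical carcinoma cells (1500 per well) were seeded in serum-free ITS-supplemented DMEM in 1536-well plates and cultured overnight. Library compounds were then pin-transferred at 8 final concentrations from 0.6 nM to 46 µM, and plates were kept 48 h at 37 °C, 5% CO2. ATP was read as CellTiter-Glo luminescence after 20 min at room temperature and normalised to vehicle (0%) and positive control (100% inhibition). IC50 came from four-parameter logistic fits; compounds with no concentration response were recorded as above the top dose.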
As a reminder, the IC50 is the point on the concentration scale where inhibition reaches its midpoint. Low values mean greater potency, high ones weaker potency. The molecule `Cc1ccc(S(=O)(=O)NC(=O)NC2CCCCCCC2)cc1` came in with a half-inhibitory concentration (IC50) of more than 46 µM.
As for `O=C1[O][Pt]2([NH][C@@H]3CCCC[C@H]3[NH]2)[O]C1=O`, the half-inhibitory concentration (IC50) was more than 46 µM.
Turning to `O[C@]([C@@H]1CSCN1)=O`, the half-inhibitory concentration (IC50) is more than 46 µM.
Molecule `O=C(CCN1CCN2CCCC2C1)N1c2ccccc2Sc2ccc(Cl)cc21` (stereo not given) showed a half-maximal inhibitory concentration (IC50) of more than 46 µM.
For `NS(=O)(=O)c1cc2c(cc1Cl)NC(C(Cl)Cl)NS2(=O)=O` (stereo not given) the value was more than 46 µM.
For `CCCCC1C(=O)N(c2ccccc2)N(c2ccccc2)C1=O` the value was more than 46 µM; for `c1cccc2N\C=C/c12`, more than 46 µM.
`[O-][N+](=Nc1ccccc1)c1ccccc1` gave an IC50 of more than 46 µM.
For `COc1cc2c(cc1OC)[C@@H](c1ccccc1)CN(C)CC2.O=C(O)/C=C\C(=O)O` the value was more than 46 µM; for `O.O.Oc1cc(O)cc(O)c1`, more than 46 µM; for `Cl.O=C(c1ccc(F)cc1)C1CCN(CCn2c(=S)[nH]c3ccccc3c2=O)CC1`, more than 46 µM.
For `CC1=C(C=C/C(C)=C/C=C/C(C)=C/CO)C(C)(C)CCC1` the value was more than 46 µM; for `CC(O)C(=O)O.CCCCCCCCCCCCCCNCCO`, more than 46 µM.
Consider `O=C(CCCN1CCN2CCCC2C1)c1ccc(F)cc1` (stereo not given), for which the IC50 was more than 46 µM.
Turning to `CNC(=O)C(N)CSC(C)C1=C(C)c2cc3[n-]c(cc4nc(cc5[n-]c(cc1n2)c(C)c5CCC(=O)O)C(CCC(=O)O)=C4C)c(C)c3C(C)SCC(N)C(=O)NC.[Fe+2]` (stereo not given), the half-maximal inhibitory concentration (IC50) was more than 46 µM.
For `CN1CCOC(c2ccccc2)c2ccccc2C1.Cl` (stereo not given) the value was more than 46 µM; for `OCc1ccccc1`, more than 46 µM.
For `Cc1cc(O)cc2c1O[C@](C)(CCC[C@H](C)CCC[C@H](C)CCCC(C)C)CC2` the value was more than 46 µM; for `O=C(O)Cc1cn(-c2ccccc2)nc1-c1ccc(Cl)cc1`, more than 46 µM.
`Cc1ncc(CSSCc2cnc(C)c(O)c2CO)c(CO)c1O.Cl.Cl` showed a half-inhibitory concentration (IC50) of more than 46 µM.
For `F[C@@]([C@](C[C@@H]5F)([H])[C@@](C4)([H])[C@@]2(C)[C@@]1([C@](COC(C)=O)=O)[C@]4([H])OC(C)(C)O1)([C@@H](O)C2)[C@](C=C3)(C)C5=CC3=O` the value was more than 46 µM; for `Cl.O=C(CCCN1CCC(O)(c2cccc(C(F)(F)F)c2)CC1)c1ccc(F)cc1`, more than 46 µM; for `NC(=O)c1ccccc1O`, more than 46 µM.
The molecule `CCOc1ccc2c3c1O[C@H]1[C@@H](O)C=C[C@H]4[C@@H](C2)N(C)CC[C@@]341` showed an IC50 of more than 46 µM.
For `O=C(C)O[C@@H]([C@H]4[N@@+]6(CCCCC6)C)[C@](CC5)(C)[C@](C4)([H])[C@@]3([H])[C@@]5([H])[C@@]2(C)C[C@@H]([C@@H](OC(C)=O)C[C@@]([H])2CC3)N1CCCCC1.[Br-]` the value was more than 46 µM; for `O=c1[nH]cc(N(CCCl)CCCl)c(=O)[nH]1`, more than 46 µM.
For `COc1ccc(C(=O)NCc2ccc(OCCN(C)C)cc2)cc1OC.Cl` the value was more than 46 µM; for `O=C(CCCN1CCC(C(=O)c2ccc(F)cc2)CC1)c1ccc(F)cc1`, more than 46 µM; for `CN1CCN(C(=O)O[C@H]2c3nccnc3C(=O)N2c2ccc(Cl)cn2)CC1`, more than 46 µM.
`ClC4=CC3=[C@@](C=C4O)[C@H]2C1=CC=CC=C1CC[C@@H]2N(C)CC3`: the IC50 was more than 46 µM.
For `Oc1cccc(O)c1` the value was more than 46 µM; for `CC(C)NC[C@@H](O)COc1ccc(CC(N)=O)cc1`, more than 46 µM.
For `CC(=O)Nc1ccc(OC(=O)c2ccccc2O)cc1` the value was more than 46 µM.
`COC1[C@@H](O[C@@H]2O[C@H](C)[C@@H](O[C@H]3C[C@@](C)(O)[C@H](OC(=O)CC(C)C)[C@H](C)O3)[C@H](N(C)C)[C@H]2O)[C@@H](CC=O)C[C@@H](C)[C@@H](O)/C=C/C=C/C[C@@H](C)OC(=O)C[C@H]1OC(C)=O` (stereo not given in full) returned a half-inhibitory concentration (IC50) of more than 46 µM.
`Cl.Clc1ccc(Cn2c(CN3CCCC3)nc3ccccc32)cc1` displayed a 50% inhibitory concentration (IC50) of more than 46 µM.
